From patent US7915227B2, “Pharmaceutical formulations employing short-chain sphingolipids and their use” (Het Nederlands Kanker Instituut, priority 2003, dated 2011)

Assays:
BAEC = test: Doxorubicin uptake by cultured BAEC; type: cell-based; conditions: lipid 10 μM, doxorubicin 50 μM simultaneously, 60 minutes, uptake in the absence of lipid = 100%
Experimental: A range of glycosphingolipids and sphingomyelins having different structures were also studied. The data are summarised in the following tables, and are expressed as a percentage (+/−SD) of doxorubicin uptake by cultured BAEC, as compared to drug uptake in the absence of lipid. Glycosphingolipids and sphingomyelins were used at 10 μM. Doxorubicin was administered simultaneously at 50 μM. After 60 minutes, cells were washed and cellular doxorubicin contents were determined fluorimetrically. Background fluorescence was subtracted from all values and all data were corrected for protein contents. Each data point is the average value of at least three independent experiments, but some lipids were assayed in 10 or more independent experiments. For each experiment 4, 6 or 8 wells with cells were treated identically and the data were then averaged (=1 experiment).

A431 cells [1] = test: Cellular doxorubicin uptake; type: cell-based, human; conditions: 15 μM co-administered lipid, within an hour, control conditions = 100%
Experimental: A431 (adherent human epidermoid carcinoma cells) were cultured in Dulbecco's modified Eagle medium (DMEM), supplemented with 10% (v/v) fetal calf serum, 100 units/ml penicillin, 100 μg/ml streptomycin and 4 mM L-glutamine. Cells were sub-cultured once a week by trypsinization and maintained in a water-saturated atmosphere of 5% CO2 at 37° C. All studies were performed at a confluency of 80-90%.
For cellular doxorubicin accumulation measurements, A431 cells were cultured in flat-bottom 96-well plates. At confluency, cells were changed to serum-free medium and exposed to 50 μM free or to 20 μM liposomal doxorubicin. After extensive washing, cells were lysed in 100 μl of 1% (w/v) Triton X-100. Native fluorescence intensities were then measured by a Perkin Elmer Victor Wallac II fluorescence microplate reader, using 485 nm and 535 nm filters for excitation and emission, respectively. All values were corrected for background fluorescence. Cellular doxorubicin contents were calculated with the aid of standard amounts, and corrected for differences in protein content, as determined with the BCA assay (see, e.g., Smith et al., 1985).

A431 cells [2] = test: Membrane leakage assay (LDH release); type: cell-based, human; conditions: for LDH release: 100 μM lipid
Experimental: To investigate (loss of) plasma membrane integrity, the release of the cytosolic enzyme LDH into phenol red-free cell culture medium was monitored. Flat-bottom 96-well plates containing (liposome-treated) A431 cells were centrifuged (2000 rpm, 5 minutes at 20° C.) and 50 μl aliquots of the supernatants were assessed for LDH activity with the CytoTox 96 kit, according the manufacturer's instructions. Values obtained from cells that were lysed in 0.8% Triton X-100 served as positive control. All data were corrected for protein contents, as determined with the BCA assay (see, e.g., Smith et al., 1985).

A431 cells [3] = test: Cell viability (MTT assay); type: cell-based, human; conditions: for viability after 24 hour exposure: 24 hour exposure to 20 μM lipid
Experimental: For viability assessment, A431 cells were cultured in flat-bottom 96-well plates. After experimental treatments, 100 μg of the mitochondrial dehydrogenase substrate MTT was added to each well (see, e.g., Carmichael et al., 1987). Cells were then incubated for 60 minutes at 37° C. After centrifugation (3000 rpm, 10 minutes at 4° C.) supernatants were removed. The precipitated blue formazan products were then dissolved in 100 μl DMSO, and absorbencies were read in a Bio-Tek Instruments EL 340 photospectrometric microplate reader at 540 nm. Background absorbencies were subtracted and values from wells containing untreated control cells were set at 100% viability.

Structure (SMILES)	doxorubicin uptake, mean % ± SD (sphingomyelins) (BAEC) [%]	doxorubicin uptake, mean % ± SD (glycosphingolipids) (BAEC) [%]	further results
CCCCCCCCCCCCC/C=C/[C@@H](OC)[C@H](COP(=O)([O-])OCC[N+](C)(C)C)NC(=O)CCCCCCC [3-O-methyl-C8-SM]	249.8 ± 36.5	–	–
CCCCCCCCCCCCC/C=C/[C@@H](O)[C@@H](N)CO[C@@H]1O[C@H](CO)[C@H](O)[C@H](O)[C@H]1O [C0-GalCer]	–	98.2 ± 9.3	–
CCCCCCCCCCCCC/C=C/[C@@H](O)[C@@H](N)CO[C@@H]1O[C@H](CO)[C@@H](O)[C@H](O)[C@H]1O [C0-GlcCer]	–	86.7 ± 16.2	–
CCCCCCCCCCCCC/C=C/[C@@H](O)C(N)CO[C@H]1O[C@H](CO)[C@@H](O[C@@H]2O[C@H](CO)[C@H](O)[C@H](O)[C@H]2O)[C@H](O)[C@@H]1O (stereo partly drawn) [C0-LacCer]	–	93.8 ± 4.0	–
CCCCCCCCCCCCC/C=C/[C@@H](O)[C@@H](N)COP(=O)([O-])OCC[N+](C)(C)C [C0-SM (SPC)]	128.3 ± 19.5	–	–
CCCCCCCCCCCCC/C=C/[C@@H](O)[C@H](CO)NC(=O)CCCCC [C6-Cer]	96.6 ± 17.3	–	–
CCCCCCCCCCCCC/C=C/[C@@H](O)[C@H](COP(=O)([O-])OCC[N+](C)(C)C)NC(=O)CCCCC [C6-SM, N-hexanoyl-sphingomyelin]	330.6 ± 92.3	–	uptake of free doxorubicin (A431 cells [1]): 461.8±126.9%; LDH release (A431 cells [2]): 53.9±7.9%; LDH release (of total LDH activity) (A431 cells [2]; 1 hour incubation with 10 μM lipid, 0.8% Triton X-100 = 100%): 0.5±0.5%; viability after 24 hour exposure (A431 cells [3]): 29.3±5.5%; viable cells (A431 cells [3]; determined 24 hours after a 1 hour incubation with 10 μM lipid): 95.6±19.1%
CCCCCCCCCCCCC/C=C/[C@@H](O)[C@H](COP(=O)(O)O)NC(=O)CCCCCCC [C8-Cer-1-P]	122.2 ± 7.2	–	–
CCCCCCCCCCCCCC=CC(O)C(COC1OC(CO)C(O)C(O)C1O)NC(=O)CCCCCCC (stereo not drawn) [C8-GalCer]	–	213.7 ± 31.1	–
CCCCCCCCCCCCC/C=C/[C@@H](O)[C@H](COC1OC(CO)C(O)C(O)C1O)NC(=O)CCCCCCC (stereo partly drawn) [C8-GlcCer, N-octanoyl-glucosylceramide]	–	335.8 ± 88.5	uptake of free doxorubicin (A431 cells [1]): 271.7±58.5%; LDH release (A431 cells [2]): 0.0±0.6%; viability after 24 hour exposure (A431 cells [3]): 71.3±5.3%
CCCCCCCCCCCCCC=CC(O)C(COC1OC(CO)C(OC2OC(CO)C(O)C(O)C2O)C(O)C1O)NC(=O)CCCCCCC (stereo not drawn) [C8-LacCer]	–	301.5 ± 41.2	–
CCCCCCCCCCCCCC=CC(O)C(COC1OC(CO)C(O)C(O)C1O)NC(=O)CCCCCCCCCCC (stereo not drawn) [C12-GlcCer]	–	85.6 ± 12.0	–
CCCCCCCCCCCCC/C=C/[C@@H](O)[C@@H](N)CO [sphingosine, (2S,3R,4E)-2-amino-4-octadecene-1,3-diol]	100.4 ± 20.3	–	–
